Reference: ChEMBL document CHEMBL1201862, “PubChem BioAssay data set” (2004)
One block for each compound: values may come before it. Calls of active or inactive are those of the source. Cut-off read from the data, not from the text of the source, for most assays here: actives have a measured EC50 and inactives only a lower limit.

Columns and labels:
[1] = cells; format: functional, cell-based
[2] = cells; format: functional, cell-based; remark: listed apart in the source
[3] = molecular target: T1, Heat shock factor protein 1 (Mus musculus, UniProt P38532); assay: decrease of HSF1-responsive luciferase luminescence – cell-based, NIH3T3, dose retest, confirmation (AID 2382); format: functional;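 note: NIH3T3 fibroblasts with HSF1-driven luciferase reporter stressed by proteasome inhibitor MG132; luminescence from HSF1-driven luciferase expression after 8 hours of MG132 stress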
T1 sequence (P38532 whole entry): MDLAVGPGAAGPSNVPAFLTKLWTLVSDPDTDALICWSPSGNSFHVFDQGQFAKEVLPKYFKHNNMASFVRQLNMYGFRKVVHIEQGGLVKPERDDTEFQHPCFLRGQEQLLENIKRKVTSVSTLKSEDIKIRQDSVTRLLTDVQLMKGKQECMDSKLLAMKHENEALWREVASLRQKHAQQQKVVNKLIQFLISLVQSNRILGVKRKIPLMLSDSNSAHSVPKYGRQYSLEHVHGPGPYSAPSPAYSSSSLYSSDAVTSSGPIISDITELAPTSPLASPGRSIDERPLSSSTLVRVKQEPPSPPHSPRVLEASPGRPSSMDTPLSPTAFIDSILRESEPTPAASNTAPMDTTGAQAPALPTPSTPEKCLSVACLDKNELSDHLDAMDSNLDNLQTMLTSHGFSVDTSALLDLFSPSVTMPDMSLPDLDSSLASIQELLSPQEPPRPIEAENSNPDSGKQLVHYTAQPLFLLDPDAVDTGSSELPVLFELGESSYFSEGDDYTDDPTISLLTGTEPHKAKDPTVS

[4] = molecular target: T2, RNA-binding protein pos-1 (Caenorhabditis elegans, UniProt G5EF15); assay: disruptors of C. elegans POS-1 RNA interaction – biochemical, fluorescence polarization, dose response (AID 1964);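 note: purified POS-1 fused to maltose binding protein made in E. coli; potency of compounds blocking POS-1 binding to fluorescent RNA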
T2 sequence (G5EF15 whole entry): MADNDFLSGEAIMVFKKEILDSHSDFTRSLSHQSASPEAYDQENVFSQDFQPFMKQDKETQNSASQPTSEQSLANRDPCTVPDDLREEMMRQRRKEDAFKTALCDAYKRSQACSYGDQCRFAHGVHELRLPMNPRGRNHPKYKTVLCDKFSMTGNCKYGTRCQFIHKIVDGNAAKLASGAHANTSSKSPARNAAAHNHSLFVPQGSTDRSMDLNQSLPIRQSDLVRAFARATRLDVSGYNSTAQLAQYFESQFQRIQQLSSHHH

[5] = molecular target: T3, Zinc finger protein mex-5 (Caenorhabditis elegans, UniProt Q9XUB2); assay: potency of MEX-5 RNA-binding blockers – biochemical, C. elegans, fluorescence polarization, dose response (AID 1960)
T3 sequence (Q9XUB2 whole entry): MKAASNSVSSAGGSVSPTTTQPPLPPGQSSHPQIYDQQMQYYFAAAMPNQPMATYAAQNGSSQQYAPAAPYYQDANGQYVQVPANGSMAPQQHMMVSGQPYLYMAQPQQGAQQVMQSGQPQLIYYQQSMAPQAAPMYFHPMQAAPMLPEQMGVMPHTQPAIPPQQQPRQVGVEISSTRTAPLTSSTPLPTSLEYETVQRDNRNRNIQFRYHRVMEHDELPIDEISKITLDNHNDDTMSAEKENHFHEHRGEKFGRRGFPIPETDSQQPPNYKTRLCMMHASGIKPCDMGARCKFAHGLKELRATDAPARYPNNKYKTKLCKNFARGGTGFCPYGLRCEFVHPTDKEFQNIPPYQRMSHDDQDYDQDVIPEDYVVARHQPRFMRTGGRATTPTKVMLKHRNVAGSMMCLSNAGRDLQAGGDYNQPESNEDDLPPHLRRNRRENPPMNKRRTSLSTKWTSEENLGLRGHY

[6] = molecular target: T4, Caspase-3 (Homo sapiens, UniProt P42574); format: functional;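 note: Dose-response selectivity test against caspase-3 for candidate inhibitors of sentrin-specific proteases (SENPs)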
T4 sequence (P42574 whole entry): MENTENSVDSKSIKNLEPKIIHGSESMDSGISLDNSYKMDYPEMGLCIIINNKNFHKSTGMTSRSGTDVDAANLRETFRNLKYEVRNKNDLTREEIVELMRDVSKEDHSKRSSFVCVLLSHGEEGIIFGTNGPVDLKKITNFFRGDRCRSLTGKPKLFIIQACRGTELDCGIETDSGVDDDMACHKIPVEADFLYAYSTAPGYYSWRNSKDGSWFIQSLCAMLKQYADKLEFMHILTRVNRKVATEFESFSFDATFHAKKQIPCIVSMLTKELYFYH

[7] = molecular target: T5, Sentrin-specific protease 7 (Homo sapiens, UniProt Q9BQF6); format: functional;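 note: Luminescence-based dose-response confirmation of ultra-high-throughput screening hits, measuring inhibition of SENP7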
T5 sequence (Q9BQF6 whole entry): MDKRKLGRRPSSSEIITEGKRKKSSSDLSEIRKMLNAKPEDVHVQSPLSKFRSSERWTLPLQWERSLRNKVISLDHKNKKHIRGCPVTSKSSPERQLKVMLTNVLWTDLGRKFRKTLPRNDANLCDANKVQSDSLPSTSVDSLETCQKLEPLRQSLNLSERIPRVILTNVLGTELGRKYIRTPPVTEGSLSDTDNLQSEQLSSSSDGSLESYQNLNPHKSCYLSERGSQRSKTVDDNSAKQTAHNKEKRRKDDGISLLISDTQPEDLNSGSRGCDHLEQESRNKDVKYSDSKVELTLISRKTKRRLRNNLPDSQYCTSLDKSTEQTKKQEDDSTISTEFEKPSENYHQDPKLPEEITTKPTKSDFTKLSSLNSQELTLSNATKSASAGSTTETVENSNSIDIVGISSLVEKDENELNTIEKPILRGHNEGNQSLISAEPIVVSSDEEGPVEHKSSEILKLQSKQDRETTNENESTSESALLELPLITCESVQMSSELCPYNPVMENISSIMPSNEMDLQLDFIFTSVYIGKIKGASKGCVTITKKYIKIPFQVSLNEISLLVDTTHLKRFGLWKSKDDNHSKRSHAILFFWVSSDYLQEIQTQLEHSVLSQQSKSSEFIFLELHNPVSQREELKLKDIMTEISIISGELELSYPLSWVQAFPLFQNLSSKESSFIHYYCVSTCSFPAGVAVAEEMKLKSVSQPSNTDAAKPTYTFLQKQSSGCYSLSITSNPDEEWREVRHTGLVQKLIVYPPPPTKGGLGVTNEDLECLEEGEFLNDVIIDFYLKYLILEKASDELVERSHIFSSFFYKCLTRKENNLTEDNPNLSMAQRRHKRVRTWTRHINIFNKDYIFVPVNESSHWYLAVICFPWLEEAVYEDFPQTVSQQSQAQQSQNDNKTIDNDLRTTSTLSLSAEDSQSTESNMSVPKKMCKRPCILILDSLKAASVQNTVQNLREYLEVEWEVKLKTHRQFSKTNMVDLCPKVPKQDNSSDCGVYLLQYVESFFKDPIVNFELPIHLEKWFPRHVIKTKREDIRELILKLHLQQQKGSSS

[8] = molecular target: T6, Sentrin-specific protease 6 (Homo sapiens, UniProt Q9GZR1); format: functional;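 note: Luminescence-based dose-response confirmatory assay of SENP6 inhibition, following up an ultra-high-throughput screen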
T6 sequence (Q9GZR1 whole entry): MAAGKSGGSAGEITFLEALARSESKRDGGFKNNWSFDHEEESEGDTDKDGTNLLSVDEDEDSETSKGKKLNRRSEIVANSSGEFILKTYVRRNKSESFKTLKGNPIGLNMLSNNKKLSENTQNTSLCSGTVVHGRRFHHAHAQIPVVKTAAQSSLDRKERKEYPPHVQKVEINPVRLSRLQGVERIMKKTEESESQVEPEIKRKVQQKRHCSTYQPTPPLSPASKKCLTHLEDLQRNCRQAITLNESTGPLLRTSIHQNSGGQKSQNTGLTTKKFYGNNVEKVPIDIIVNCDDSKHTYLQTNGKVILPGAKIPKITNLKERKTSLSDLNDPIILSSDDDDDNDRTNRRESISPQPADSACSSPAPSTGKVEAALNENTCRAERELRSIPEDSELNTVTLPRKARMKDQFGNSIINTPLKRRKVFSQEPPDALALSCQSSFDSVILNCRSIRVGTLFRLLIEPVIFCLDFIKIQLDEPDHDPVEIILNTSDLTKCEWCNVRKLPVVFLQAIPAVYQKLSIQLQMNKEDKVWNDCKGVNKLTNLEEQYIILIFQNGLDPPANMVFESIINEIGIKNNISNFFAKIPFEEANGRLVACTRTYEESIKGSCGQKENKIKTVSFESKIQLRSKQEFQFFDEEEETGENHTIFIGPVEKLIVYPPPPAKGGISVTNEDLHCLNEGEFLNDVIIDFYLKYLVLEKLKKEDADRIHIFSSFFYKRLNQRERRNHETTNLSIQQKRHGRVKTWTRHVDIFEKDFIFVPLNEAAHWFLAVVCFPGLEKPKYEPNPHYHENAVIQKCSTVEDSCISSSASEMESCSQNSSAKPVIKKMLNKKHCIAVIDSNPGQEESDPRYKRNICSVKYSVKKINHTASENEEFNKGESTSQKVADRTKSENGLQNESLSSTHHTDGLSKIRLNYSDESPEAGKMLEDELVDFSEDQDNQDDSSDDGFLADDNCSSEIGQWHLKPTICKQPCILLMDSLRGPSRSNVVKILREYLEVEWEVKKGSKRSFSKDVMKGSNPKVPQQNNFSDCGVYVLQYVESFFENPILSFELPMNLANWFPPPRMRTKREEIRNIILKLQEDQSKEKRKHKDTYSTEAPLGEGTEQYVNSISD

[9] = molecular target: T7, Sentrin-specific protease 8 (Homo sapiens, UniProt Q96LD8); format: functional;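 note: luminescence read-out of SENP8 inhibition, dose-response confirmation following an ultra-high-throughput screen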
T7 sequence (Q96LD8 whole entry): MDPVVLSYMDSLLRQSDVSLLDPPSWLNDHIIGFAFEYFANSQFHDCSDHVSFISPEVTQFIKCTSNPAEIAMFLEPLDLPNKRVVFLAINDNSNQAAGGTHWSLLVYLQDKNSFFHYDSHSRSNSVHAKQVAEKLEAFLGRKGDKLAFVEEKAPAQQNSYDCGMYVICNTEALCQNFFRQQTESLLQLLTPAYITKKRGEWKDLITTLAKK

[10] = molecular target: T1, Heat shock factor protein 1; assay: enhancement of HSF1-driven luciferase signal – cell-based, NIH3T3, luminescence, dose retest, confirmation (AID 435004); format: functional;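 note: stress induced by proteasome inhibitor MG132 added 30 min after compound; luciferase reporter driven by HSF1 response element in NIH3T3 cells; actives raise luminescence as potentiators of the MG132 stress response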

Compound: CCOc1ccc(NC(=O)CC2C(=O)Nc3ccccc3N2C(=O)c2ccccc2)cc1 (configuration not stated)
- EC50 [1]: > 350 µM (not active)
- EC50 [2]: > 350 µM (not active)

Compound: CCN1C(=O)/C(=C\N(C)C)NC1=S
- EC50 [4]: 22.6 µM (active)
- EC50 [5]: 154 µM (inconclusive)

Compound: CC(C)c1cc(-c2cc(C(=O)NCc3ccccc3)on2)nc(NC2CCCC2)n1
- EC50 [1]: > 350 µM (not active)
- EC50 [2]: > 350 µM (not active)

Compound: Cc1csc(NC(=O)c2ccc(Br)s2)n1
- IC50 [6]: 14 µM (active)
- IC50 [7]: 7.6 µM (active)
- IC50 [8]: 24.9 µM (active)
- IC50 [9]: 27.4 µM (active)

Compound: C=CCOc1ccc(C(c2c(C)n(C)n(-c3ccccc3)c2=O)c2c(C)n(C)n(-c3ccccc3)c2=O)cc1
- EC50 [3]: > 195 µM (not active)

Compound: Cc1cccc(-c2noc(-c3c(C)noc3C)n2)c1
- IC50 [6]: 29.8 µM (active)
- IC50 [7]: 6.22 µM (active)
- IC50 [8]: > 100 µM (inactive)
- IC50 [9]: > 100 µM (inactive)

Compound: Cc1noc(C)c1CSc1ncnc2sc3c(c12)CCC3
- EC50 [3]: > 195 µM (not active)

Compound: COc1ccc(Cc2nnc(SCC(=O)NC3CCCCC3)n2C)cc1
- EC50 [1]: > 350 µM (not active)
- EC50 [2]: > 350 µM (not active)

Compound: Cc1ccc(C(=O)OCC(=O)c2ccc(Cl)s2)s1
- IC50 [6]: 18.9 µM (active)
- IC50 [7]: 7.61 µM (active)
- EC50 [10]: 20.3 µM (active)
- IC50 [8]: 24.6 µM (active)
- IC50 [9]: 29.7 µM (active)

Compound: Cc1ccc(CN(C)C(=O)CC2C(=O)NCCN2CC2CCCCC2)cc1 (configuration not stated)
- EC50 [4]: 175 µM (active)
- EC50 [5]: > 300 µM (not active)

Compound: CCCCc1nnc(NC(=O)c2ccc3nc(O)c(O)nc3c2)s1
- EC50 [1]: > 350 µM (not active)
- EC50 [2]: > 350 µM (not active)

Compound: Cc1noc(C)c1COC(=O)C1CC(O)CN1S(=O)(=O)c1ccc(Cl)cc1 (configuration not stated)
- EC50 [1]: > 350 µM (not active)
- EC50 [2]: > 350 µM (not active)

Compound: CNC(=O)Cn1nc(C)c2ccccc2c1=O
- EC50 [3]: > 195 µM (not active)

Compound: COc1ccccc1CC(=N)NO
- EC50 [1]: > 350 µM (not active)
- EC50 [2]: > 350 µM (not active)

Compound: CNC(=S)Nc1ccc(-c2nc3ccc(C)cc3s2)cc1
- IC50 [6]: 7.31 µM (active)
- IC50 [7]: 3.62 µM (active)
- IC50 [8]: 5.18 µM (active)
- IC50 [9]: 5.47 µM (active)

The next lines start with results.

- EC50 [3]: > 195 µM (not active)
Compound: Cn1c(C(=O)NN)cc2cc(OCc3ccccc3)ccc21

- EC50 [4]: > 300 µM (not active)
- EC50 [5]: > 300 µM (not active)
Compound: CCOC(=O)C1=C(C)OC(N)=C(C#N)C1c1ccc(O)c(OC)c1 (configuration not stated)

- EC50 [4]: > 300 µM (not active)
- EC50 [5]: > 300 µM (not active)
Compound: COc1ccc(CCC(=O)Nc2cccc(Cl)c2)cc1

- EC50 [3]: > 195 µM (not active)
Compound: COc1ccc(/C=N/NC(=O)CN(C)S(=O)(=O)c2ccc(NC(C)=O)cc2)cc1

- EC50 [3]: > 195 µM (not active)
Compound: C#Cc1ccc([C@@H]2C=C(C(=O)OCC=C)O[C@H](OCc3ccc(CO)cc3)C2)cc1

- IC50 [6]: 37.1 µM (active)
- IC50 [7]: 7.79 µM (active)
- IC50 [8]: 10.6 µM (active)
Compound: Cc1ccc(Cn2ccs/c2=N\C(=O)COC(=O)c2ccc(O)cc2O)cc1
- IC50 [9]: > 100 µM (inactive)

- EC50 [3]: > 195 µM (not active)
Compound: CCc1ccc(OC(C)C(=O)N(Cc2ccco2)C2CCS(=O)(=O)C2)cc1 (configuration not stated)

- EC50 [4]: > 300 µM (not active)
- EC50 [5]: 45.5 µM (active)
Compound: CCNC(=O)c1cc2c(=O)n3cccc(C)c3nc2n(Cc2ccc(C)cc2)c1=N

- EC50 [4]: > 300 µM (not active)
- EC50 [5]: > 300 µM (not active)
Compound: CCOC(=O)c1ccc(-n2c(CCC(=O)O)ccc2-c2ccc(F)cc2)cc1
